One experiment deals with D(3) dopamine receptor (Homo sapiens, UniProt P35462). In words: Displacement of [3H]-(R)-(+)7-OH-DPAT from human dopamine D3 receptor expressed in HEK293 cell membranes incubated for 90 mins by microbeta scintillation counting analysis. (Displacement assays read how much labelled ligand stays bound in the presence of the test substance.)
Another experiment deals with D(2) dopamine receptor (Homo sapiens, UniProt P14416). In words: Displacement of [3H]-(R)-(+)7-OH-DPAT from human dopamine D2 receptor expressed in HEK293 cell membranes incubated for 90 mins by microbeta scintillation counting analysis.
Sequence of D(2) dopamine receptor (P14416 whole entry): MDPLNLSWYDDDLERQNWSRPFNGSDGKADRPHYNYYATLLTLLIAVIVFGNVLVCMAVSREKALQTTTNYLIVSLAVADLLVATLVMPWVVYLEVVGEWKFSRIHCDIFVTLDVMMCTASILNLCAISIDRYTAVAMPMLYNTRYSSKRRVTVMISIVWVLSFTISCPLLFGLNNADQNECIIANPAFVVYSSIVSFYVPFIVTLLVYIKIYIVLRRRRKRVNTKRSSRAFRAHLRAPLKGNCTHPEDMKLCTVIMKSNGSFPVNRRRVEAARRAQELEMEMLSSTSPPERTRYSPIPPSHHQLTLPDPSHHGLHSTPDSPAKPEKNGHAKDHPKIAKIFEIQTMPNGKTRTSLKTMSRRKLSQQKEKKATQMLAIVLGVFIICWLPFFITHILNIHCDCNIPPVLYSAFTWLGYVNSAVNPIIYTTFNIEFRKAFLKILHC

Sequence of D(3) dopamine receptor (P35462 whole entry): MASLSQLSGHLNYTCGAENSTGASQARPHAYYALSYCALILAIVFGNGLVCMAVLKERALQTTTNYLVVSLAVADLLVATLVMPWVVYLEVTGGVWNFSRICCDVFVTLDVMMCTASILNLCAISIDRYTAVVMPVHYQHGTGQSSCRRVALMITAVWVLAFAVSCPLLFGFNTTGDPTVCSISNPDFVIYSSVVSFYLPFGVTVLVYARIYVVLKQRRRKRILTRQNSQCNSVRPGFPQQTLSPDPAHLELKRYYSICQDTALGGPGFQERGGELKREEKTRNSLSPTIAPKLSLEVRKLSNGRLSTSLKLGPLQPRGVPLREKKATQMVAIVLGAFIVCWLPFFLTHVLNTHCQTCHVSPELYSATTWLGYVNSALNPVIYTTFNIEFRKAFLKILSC

As for `CN(CC[C@@H]1CC[C@@H](CNC(=O)c2cc3ccccc3[nH]2)C1)[C@@H]1Cc2cccc3[nH]c(=O)n(c23)C1`, the Ki (commonly the equilibrium dissociation constant of an inhibitor or competing ligand from its target) at D(3) dopamine receptor was determined as 77 nM; on D(2) dopamine receptor, 4.6 nM.

Take `CN(CC[C@@H]1CC[C@H](CNC(=O)c2cc3ccccc3[nH]2)C1)[C@@H]1Cc2cccc3[nH]c(=O)n(c23)C1`: the figures for the inhibition constant Ki on D(3) dopamine receptor and at D(2) dopamine receptor were 20 nM and 2 nM, respectively.

These data come from BindingDB's records for PubMed 34699207 (National Institute On Drug Abuse?Intramural Research Program, 2021).
